Measured values from patent US5084469A, “New substituted benzothiazolinones” (Adir et Compagnie, priority 1989, dated 1992).

Assay: Analgesic activity (Siegmund test, phenyl-p-benzoquinone writhing)
Format: in vivo
Details: Mus musculus; oral, mice, 1 hour before i.p. phenyl-p-benzoquinone; writhing counted 5th to 10th minute; read-out: ED50 (dose producing a 50% decrease in the number of writhing movements)
Description: The activity against pain was investigated in mice (20-25 g) according to a protocol derived from the technique described by SIEGMUND (SIEGMUND E.A., R.A., CADMUS & GOLU, J. Pharm. Exp. Ther. 119, […], 1954). The mice, randomized in batches of 12 animals, received the treatment orally (excipient for the controls) 1 hour before the intraperitoneal injection of a 0.02% aqueousalcoholic solution of phenyl-p-benzoquinone (Sigma). The writhing movements are counted between the 5th and 10th minute after injection.
The percentage activity obtained was evaluated for each dose (% decrease in the number of writhing movements in the treated animals relative to the controls). An ED50, the dose producing a 50% activity, was determined for each product.

## O=c1[nH]c2ccc(Cc3ccccc3)cc2s1 [Example 1, 6-Benzylbenzothiazolinone]
  ED50: ~2 mg/kg
